Test results reported in US8148395B2, “Azolopyridin-3-one derivatives as inhibitors of lipases and phospholipases” (Sanofi-Aventis, priority 2006, dated 2012).

Biological target: T1, endothelial lipase (EL) (Homo sapiens, UniProt Q9Y5X9)
T1 construct: EL is released as secretory protein in high concentration into cell culture medium (conditioned medium) by recombinant cell lines (CHO, HEK293); made in house; host or cells: recombinant cell lines (CHO, HEK293); concentrated conditioned medium used as enzyme solution
T1 sequence (Q9Y5X9 21-500): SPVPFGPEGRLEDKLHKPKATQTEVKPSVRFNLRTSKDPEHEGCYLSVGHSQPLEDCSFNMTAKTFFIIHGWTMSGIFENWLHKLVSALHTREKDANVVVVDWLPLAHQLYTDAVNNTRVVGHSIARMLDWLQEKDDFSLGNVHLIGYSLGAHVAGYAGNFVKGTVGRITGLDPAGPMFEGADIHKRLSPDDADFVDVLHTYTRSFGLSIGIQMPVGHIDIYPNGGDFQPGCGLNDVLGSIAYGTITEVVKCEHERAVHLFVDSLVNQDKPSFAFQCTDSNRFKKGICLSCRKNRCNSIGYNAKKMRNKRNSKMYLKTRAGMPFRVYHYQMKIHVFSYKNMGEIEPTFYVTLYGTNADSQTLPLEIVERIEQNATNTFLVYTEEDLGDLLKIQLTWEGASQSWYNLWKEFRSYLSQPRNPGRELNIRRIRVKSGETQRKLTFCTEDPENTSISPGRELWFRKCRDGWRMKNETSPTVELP
Assay: EL inhibition assay (EL activity assay, fluorescent Bodipy phospholipid substrate)
Type: biochemical
Settings: EL from conditioned medium of recombinant cell lines (CHO, HEK293); 37° C., 90 minutes; HPTLC fluorescence read-out
Text: EL is released as secretory protein in high concentration into cell culture medium (conditioned medium) by recombinant cell lines (CHO, HEK293). This was employed as enzyme solution after concentration.
The phospholipase-specific substrate 1,2-bis(4,4-difluoro-5,7-dimethyl-4-bora-3a,4a-diaza-s-indacene-3-undecanoyl)-sn-glycero-3-phosphocholine, (manufacturer Molecular Probes) was used to characterize the enzymatic activity of endothelial lipase and the effect of inhibitors. Hydrolysis of the A1 ester linkage of this phospholipid by the enzyme liberates a fatty acid labeled with the fluorescent dye Bodipy which can be detected after separation by thin-layer chromatography on an HPTLC plate (silica gel 60, Merck) or directly in the reaction vessel by measuring the fluorescence.
The substrate solution was prepared by 100 μg of 1,2-bis(4,4-difluoro-5,7-dimethyl-4-bora-3a,4a-diaza-s-indacene-3-undecanoyl)-sn-glycero-3-phospho-choline (manufacturer Molecular Probes) being dissolved in 100 μl of DMSO and taken up with 2.4 mg of tripalmitin (Sigma) in 393 μl of chloroform which contained 20 mg/ml DOP-choline (1,2-dioleoyl-sn-glycero-3-phosphocholine). 39.3 μl of this lipid mixture were transferred into a fresh reaction vessel and the solvent was evaporated. The lipid mixture was dissolved in 4 ml of 200 mM TRIS-HCl, 150 mM sodium chloride, pH=7.4, by sonication twice. The subsequent enzymic reaction took place at 37° C. for 90 minutes. For this purpose, 20 μl of the substrate solution were incubated with 2 μl of inhibitor of appropriate concentration (dissolved in 10% DMSO, using 10% DMSO solution for control) and 2 μl of enzyme solution (conditioned medium). Then 4 μl of the assay mixture were loaded onto an HPTLC plate (silica gel 60, Merck), and the liberated fluorescent dye was separated for detection with an eluent (diethyl ether:petroleum benzene:acetic acid [78:22:1]). After evaporation of the eluent, the plate was read in a fluorescence scanner. An increased liberation of the fluorescent dye in the uninhibited reaction was to be observed as a measure of the enzymic activity.
The enzymatic activity was reduced as a function of the inhibitor concentration used. The inhibitor concentration at which a half-maximum enzymatic activity is observed is called IC50.

SMILES | IC50 [µM]
CCCCCCNC(=O)n1oc2nc(C(F)(F)F)ccc2c1=O [Example 16, 3-Oxo-6-trifluoromethyl-3H-isoxazolo[5,4-b]pyridine-2-carboxylic acid hexylamide] | 0.01
CCCCCCNC(=O)n1c(=O)c2c(C)cc(Cl)nc2n1Cc1ccccc1 [Example 15, 1-Benzyl-6-chloro-4-methyl-3-oxo-1,3-dihydropyrazolo[3,4-b]pyridine-2-carboxylic acid hexylamide] | 0.057
CCCCCCNC(=O)n1c(=O)c2c(C)cc(Cl)nc2n1CCCC [Example 10, 1-Butyl-6-chloro-4-methyl-3-oxo-1,3-dihydropyrazolo[3,4-b]pyridine-2-carboxylic acid hexylamide] | 0.001
CCCCCCNC(=O)n1oc2nc(C)ccc2c1=O [Example 17, 6-Methyl-3-oxo-3H-isoxazolo[5,4-b]pyridine-2-carboxylic acid hexylamide] | 0.011
CCCCCCNC(=O)n1oc2ncccc2c1=O [Example 6, 3-Oxo-3H-isoxazolo[5,4-b]pyridine-2-carboxylic acid hexylamide] | 0.043
CCCCn1c2nc(Cl)cc(C)c2c(=O)n1C(=O)NCCc1cccs1 [Example 11, 1-Butyl-6-chloro-4-methyl-3-oxo-1,3-dihydropyrazolo[3,4-b]pyridine-2-carboxylic acid (2-thiophen-2-ylethyl)amide] | 1.23
Cc1cc(Cl)nc2c1c(=O)n(C(=O)N[C@H]1CCc3ccccc31)n2C [Example 13, 6-Chloro-1,4-dimethyl-3-oxo-1,3-dihydropyrazolo[3,4-b]pyridine-2-carboxylic acid (S)-indan-1-ylamide] | 0.204
Cc1cc(Cl)nc2c1c(=O)n(C(=O)NCCc1cccs1)n2C [Example 4, 6-Chloro-1,4-dimethyl-3-oxo-1,3-dihydropyrazolo[3,4-b]pyridine-2-carboxylic acid (2-thiophen-2-ylethyl)amide] | 0.019
Cc1ccccc1CNC(=O)n1c(=O)c2c(C)cc(Cl)nc2n1C [Example 2, 6-Chloro-1,4-dimethyl-3-oxo-1,3-dihydro-pyrazolo[3,4-b]pyridine-2-carboxylic acid 2-methylbenzylamide] | 0.02

Further lines, results first:

IC50 [µM] | SMILES
0.029 | Cc1cc(Cl)nc2c1c(=O)n(C(=O)NC1CCCc3ccccc31)n2C (stereo not shown) [Example 12, 6-Chloro-1,4-dimethyl-3-oxo-1,3-dihydropyrazolo[3,4-b]pyridine-2-carboxylic acid (1,2,3,4-tetrahydronaphthalen-1-yl)amide]
1.21 | Cc1cc(Cl)nc2[nH]n(C(=O)NC3CCCc4ccccc43)c(=O)c12 (stereo not shown) [Example 9, 6-Chloro-4-methyl-3-oxo-1,3-dihydropyrazolo[3,4-b]pyridine-2-carboxylic acid (1,2,3,4-tetrahydronaphthalen-1-yl)amide]
0.091 | Cc1cc(Cl)nc2[nH]n(C(=O)N[C@@H]3CCc4ccccc43)c(=O)c12 [Example 8, 6-Chloro-4-methyl-3-oxo-1,3-dihydropyrazolo[3,4-b]pyridine-2-carboxylic acid (R)-indan-1-ylamide]
0.008 | Cc1cc(Cl)nc2c1c(=O)n(C(=O)N[C@@H]1CCc3ccccc31)n2C [Example 14, 6-Chloro-1,4-dimethyl-3-oxo-1,3-dihydropyrazolo[3,4-b]pyridine-2-carboxylic acid (R)-indan-1-ylamide]
